Measurements published in ChEMBL document CHEMBL3045094, “A cytotoxic agent from Strychnos nux-vomica and biological evaluation of its modified analogues” (Med Chem Res, 2012).
≈ marks a conversion by molar mass, not a printed value.

Experiments:
PA-1 [1] = assay: Cytotoxic activity against Homo sapiens (human) PA1 cells incubated for 4 hr followed by compound wash-out measured after doubling time by MTT assay; format: functional, cell-based
WRL68 [2] = assay: Cytotoxic activity against Homo sapiens (human) WRL68 cells incubated for 4 hr followed by compound wash-out measured after doubling time by MTT assay; format: functional, cell-based
COLO 320 [3] = assay: Cytotoxic activity against Homo sapiens (human) COLO320 cells incubated for 4 hr followed by compound wash-out measured after doubling time by MTT assay; format: functional, cell-based
MCF7 [4] = assay: Cytotoxic activity against Homo sapiens (human) MCF7 cells incubated for 4 hr followed by compound wash-out measured after doubling time by MTT assay; format: functional, cell-based
Caco-2 [5] = assay: Cytotoxic activity against Homo sapiens (human) Caco2 cells incubated for 4 hr followed by compound wash-out measured after doubling time by MTT assay; format: functional, cell-based
Caco-2 [6] = assay: Cytotoxic activity against Homo sapiens (human) Caco2 cells by clonogenic assay; format: functional, cell-based
Bacopa monnieri [7] = assay: Toxicity against Bacopa monnieri assessed as change in leaf colour at 50 ug/ml after 15 days by Bacopa sensor test; format: organism-based; settings: in vivo, 360 h
COLO 320 [8] = assay: Cytotoxic activity against Homo sapiens (human) COLO320 cells by clonogenic assay; format: functional, cell-based
MCF7 [9] = assay: Cytotoxic activity against Homo sapiens (human) MCF7 cells by clonogenic assay; format: functional, cell-based
WRL68 [10] = assay: Cytotoxic activity against Homo sapiens (human) WRL68 cells by clonogenic assay; format: functional, cell-based
PA-1 [11] = assay: Cytotoxic activity against Homo sapiens (human) PA1 cells by clonogenic assay; format: functional, cell-based
Bacopa monnieri [12] = assay: Toxicity against Bacopa monnieri assessed as number of leaves at 50 ug/ml after 15 days by Bacopa sensor test (reference value: 6); format: organism-based; settings: in vivo, 360 h
Bacopa monnieri [13] = assay: Toxicity against Bacopa monnieri assessed as shoot elongation at 50 ug/ml after 15 days by Bacopa sensor test (reference value: 0.8 cm); format: organism-based; settings: in vivo, 360 h
Bacopa monnieri [14] = assay: Toxicity against Bacopa monnieri assessed as number of shoots at 50 ug/ml after 15 days by Bacopa sensor test (reference value: 2); format: organism-based; settings: in vivo, 360 h
Bacopa monnieri [15] = assay: Toxicity against Bacopa monnieri assessed as number of roots at 50 ug/ml after 15 days by Bacopa sensor test (reference value: 2); format: organism-based; settings: in vivo, 360 h
COLO 320 [16] = assay: Ratio of vinblastine IC50 to compound IC50 for Homo sapiens (human) COLO320 cells by MTT assay; format: functional
WRL68 [17] = assay: Ratio of vinblastine IC50 to compound IC50 for Homo sapiens (human) WRL68 cells by MTT assay; format: functional
Caco-2 [18] = assay: Ratio of vinblastine IC50 to compound IC50 for Homo sapiens (human) Caco2 cells by MTT assay; format: functional
[19] = Homo sapiens, PA-1, 4 h, read-out: IC50
[20] = Homo sapiens, WRL68, 4 h, read-out: IC50
[21] = Homo sapiens, COLO 320, 4 h, read-out: IC50
[22] = Homo sapiens, MCF7, 4 h, read-out: IC50
[23] = Homo sapiens, Caco-2, 4 h, read-out: IC50

SMILES | IC50 (Caco-2 [5]; caco-2) | IC50 (Caco-2 [6]) | Activity (Bacopa monnieri [7]) | IC50 (PA-1 [1]; [19]) | IC50 (COLO 320 [8]) | IC50 (WRL68 [2]; [20]) | IC50 (MCF7 [9]) | IC50 (WRL68 [10]) | IC50 (PA-1 [11]) | IC50 (COLO 320 [3]; [21]) | Activity (Bacopa monnieri [12]) | Activity (Bacopa monnieri [13]) | IC50 (MCF7 [4]; [22]) | Activity (Bacopa monnieri [14]) | Activity (Bacopa monnieri [15]) | IC50 (Caco-2 [5]; [23]) | also measured
COC(=O)C1=CO[C@@H](O[C@@H]2O[C@H](CO)[C@@H](OC(C)=O)[C@H](OC(C)=O)[C@H]2OC(C)=O)[C@@H]2[C@@H](C)[C@@H](OC(C)=O)C[C@H]12 | Not Active |  |  |  |  |  |  |  |  |  |  |  |  |  |  |  | IC50 (PA-1 [1]; pa-1): Not Active; IC50 (WRL68 [2]; wrl68): Not Active; IC50 (COLO 320 [3]; colo 320): Not Active; IC50 (MCF7 [4]; mcf7): Not Active
COC(=O)C1=CO[C@@H](O[C@@H]2O[C@H](COC(c3ccccc3)(c3ccccc3)c3ccccc3)[C@@H](O)[C@H](O)[C@H]2O)[C@@H]2[C@@H](C)[C@@H](O)C[C@H]12 [6'-O-TRITYL LOGANIN] |  | 2.54 µg/mL (≈ 4.01 µM) | Non-toxic | 0.65 µg/mL (≈ 1.03 µM) | 1.4 µg/mL (≈ 2.21 µM) | 1.86 µg/mL (≈ 2.94 µM) | 2.8 µg/mL (≈ 4.43 µM) | 4.2 µg/mL (≈ 6.64 µM) | 2.42 µg/mL (≈ 3.82 µM) | 0.25 µg/mL (≈ 0.395 µM) | 6 | 0.4 cm | 1 µg/mL (≈ 1.58 µM) | 2 | 2 | 0.56 µg/mL (≈ 0.885 µM) | 
CCCCCCCCCCCC(=O)OC[C@H]1O[C@@H](O[C@@H]2OC=C(C(=O)OC)[C@H]3C[C@H](OC(C)=O)[C@H](C)[C@@H]23)[C@H](OC(C)=O)[C@@H](OC(C)=O)[C@@H]1OC(C)=O |  | 1.24 µg/mL (≈ 1.67 µM) | Non-toxic | 0.15 µg/mL (≈ 0.202 µM) | 0.24 µg/mL (≈ 0.324 µM) | 0.85 µg/mL (≈ 1.15 µM) | 0.75 µg/mL (≈ 1.01 µM) | 2.62 µg/mL (≈ 3.54 µM) | 0.42 µg/mL (≈ 0.567 µM) | 0.04 µg/mL (≈ 0.054 µM) | 6 | 0 cm | 0.24 µg/mL (≈ 0.324 µM) | 2 | 3 | 0.42 µg/mL (≈ 0.567 µM) | Ratio IC50 (COLO 320 [16]): 13; Ratio IC50 (WRL68 [17]): 2
CCCCCCCCCCCCCC(=O)OC[C@H]1O[C@@H](O[C@@H]2OC=C(C(=O)OC)[C@H]3C[C@H](OC(C)=O)[C@H](C)[C@@H]23)[C@H](OC(C)=O)[C@@H](OC(C)=O)[C@@H]1OC(C)=O | Not Active |  |  | 6.5 µg/mL (≈ 8.45 µM) |  | 58.5 µg/mL (≈ 76.1 µM) |  |  |  | 30 µg/mL (≈ 39 µM) |  |  | 24.6 µg/mL (≈ 32 µM) |  |  |  | 
COC(=O)C1=CO[C@@H](O[C@@H]2O[C@H](COC(=O)c3cc(OC)c(OC)c(OC)c3)[C@@H](OC(C)=O)[C@H](OC(C)=O)[C@H]2OC(C)=O)[C@@H]2[C@@H](C)[C@@H](OC(C)=O)C[C@H]12 |  | 0.46 µg/mL (≈ 0.611 µM) | Non-toxic | 0.1 µg/mL (≈ 0.133 µM) | 0.12 µg/mL (≈ 0.159 µM) | 0.54 µg/mL (≈ 0.717 µM) | 0.72 µg/mL (≈ 0.957 µM) | 1.2 µg/mL (≈ 1.59 µM) | 0.45 µg/mL (≈ 0.598 µM) | 0.04 µg/mL (≈ 0.0531 µM) | 4 | 0.4 cm | 0.25 µg/mL (≈ 0.332 µM) | 2 | 2 | 0.06 µg/mL (≈ 0.0797 µM) | Ratio IC50 (COLO 320 [16]): 13; Ratio IC50 (Caco-2 [18]): 8; Ratio IC50 (WRL68 [17]): 3
C=CC(=O)OC[C@H]1O[C@@H](O[C@@H]2OC=C(C(=O)OC)[C@H]3C[C@H](OC(C)=O)[C@H](C)[C@@H]23)[C@H](OC(C)=O)[C@@H](OC(C)=O)[C@@H]1OC(C)=O | Not Active |  |  |  |  |  |  |  |  |  |  |  |  |  |  |  | IC50 (PA-1 [1]; pa-1): Not Active; IC50 (WRL68 [2]; wrl68): Not Active; IC50 (COLO 320 [3]; colo 320): Not Active; IC50 (MCF7 [4]; mcf7): Not Active
COC(=O)C1=CO[C@@H](O[C@@H]2O[C@H](COC(=O)c3cccc([N+](=O)[O-])c3)[C@@H](OC(C)=O)[C@H](OC(C)=O)[C@H]2OC(C)=O)[C@@H]2[C@@H](C)[C@@H](OC(C)=O)C[C@H]12 |  | 5.42 µg/mL (≈ 7.66 µM) | Non-toxic | 0.85 µg/mL (≈ 1.2 µM) | 8.2 µg/mL (≈ 11.6 µM) | 3.2 µg/mL (≈ 4.52 µM) | 3.42 µg/mL (≈ 4.83 µM) | 6.5 µg/mL (≈ 9.19 µM) | 2.65 µg/mL (≈ 3.74 µM) | 0.44 µg/mL (≈ 0.622 µM) | 6 | 0.8 cm | 1.25 µg/mL (≈ 1.77 µM) | 2 | 2 | 1 µg/mL (≈ 1.41 µM) | 
COC(=O)C1=CO[C@@H](O[C@@H]2O[C@H](CO)[C@@H](O)[C@H](O)[C@H]2O)[C@@H]2[C@@H](C)[C@@H](O)C[C@H]12 [LOGANIN] |  | 3.45 µg/mL (≈ 8.84 µM) | Non-toxic | 1.45 µg/mL (≈ 3.71 µM) | 2.2 µg/mL (≈ 5.64 µM) | 1.86 µg/mL (≈ 4.76 µM) | 6.45 µg/mL (≈ 16.5 µM) | 3.2 µg/mL (≈ 8.2 µM) | 4.85 µg/mL (≈ 12.4 µM) | 1 µg/mL (≈ 2.56 µM) | 6 | 0.4 cm | 4.85 µg/mL (≈ 12.4 µM) | 2 | 2 | 1.28 µg/mL (≈ 3.28 µM) | 
COC(=O)C1=CO[C@@H](O[C@@H]2O[C@H](COC(=O)C=C(C)C)[C@@H](OC(C)=O)[C@H](OC(C)=O)[C@H]2OC(C)=O)[C@@H]2[C@@H](C)[C@@H](OC(C)=O)C[C@H]12 |  | 6.2 µg/mL (≈ 9.68 µM) | Non-toxic | 0.65 µg/mL (≈ 1.01 µM) | 2.84 µg/mL (≈ 4.43 µM) | 1.2 µg/mL (≈ 1.87 µM) | 4.65 µg/mL (≈ 7.26 µM) | 3.86 µg/mL (≈ 6.03 µM) | 1.84 µg/mL (≈ 2.87 µM) | 0.08 µg/mL (≈ 0.125 µM) | 6 | 0.4 cm | 1 µg/mL (≈ 1.56 µM) | 2 | 2 | 0.8 µg/mL (≈ 1.25 µM) | 
CC[C@]1(O)C[C@@H]2CN(CCc3c([nH]c4ccccc34)[C@@](C(=O)OC)(c3cc4c(cc3OC)N(C)[C@H]3[C@@](O)(C(=O)OC)[C@H](OC(C)=O)[C@]5(CC)C=CCN6CC[C@]43[C@@H]65)C2)C1 [VINBLASTINE] |  | 2.8 µg/mL (≈ 3.45 µM) | Non-toxic | 0.03 µg/mL (≈ 0.037 µM) | 1.6 µg/mL (≈ 1.97 µM) |  |  |  | 0.15 µg/mL (≈ 0.185 µM) | 0.52 µg/mL (≈ 0.641 µM) | 6 | 0.6 cm |  | 2 | 2 | 0.46 µg/mL (≈ 0.567 µM) | 
CCCCCCCCCCCCCCCC(=O)OC[C@H]1O[C@@H](O[C@@H]2OC=C(C(=O)OC)[C@H]3C[C@H](OC(C)=O)[C@H](C)[C@@H]23)[C@H](OC(C)=O)[C@@H](OC(C)=O)[C@@H]1OC(C)=O | Not Active |  |  |  |  |  |  |  |  |  |  |  |  |  |  |  | IC50 (PA-1 [1]; pa-1): Not Active; IC50 (WRL68 [2]; wrl68): Not Active; IC50 (COLO 320 [3]; colo 320): Not Active; IC50 (MCF7 [4]; mcf7): Not Active
CCC(=O)OC[C@H]1O[C@@H](O[C@@H]2OC=C(C(=O)OC)[C@H]3C[C@H](OC(C)=O)[C@H](C)[C@@H]23)[C@H](OC(C)=O)[C@@H](OC(C)=O)[C@@H]1OC(C)=O |  | 4.88 µg/mL (≈ 7.94 µM) | Non-toxic | 1.24 µg/mL (≈ 2.02 µM) | 4.86 µg/mL (≈ 7.91 µM) | 2.65 µg/mL (≈ 4.31 µM) | 4.26 µg/mL (≈ 6.93 µM) | 8.4 µg/mL (≈ 13.7 µM) | 2.85 µg/mL (≈ 4.64 µM) | 0.85 µg/mL (≈ 1.38 µM) | 4 | 0.65 cm | 1.88 µg/mL (≈ 3.06 µM) | 2 | 2 | 2.85 µg/mL (≈ 4.64 µM) | 
COc1cccc2c1C(=O)c1c(O)c3c(c(O)c1C2=O)C[C@@](O)(C(=O)CO)C[C@@H]3O[C@H]1C[C@H](N)[C@H](O)[C@H](C)O1 [DOXORUBICIN] |  |  | Toxic |  |  |  |  |  |  |  | 2 | 0.2 cm |  | 1 | 0 |  | 
